System: MV-4-11 cells
Experiment: Gene expression microarray analysis (Affymetrix PrimeView) and GSEA
Type: cell-based, human
Design: RFU PODN (11730768_x_at) / Fold change /veh PODN (11730768_x_at) / RFU LINC00158 (11744669_a_at) / Fold change /veh LINC00158 (11744669_a_at) / RFU DUSP10 (11751237_a_at) / Fold change /veh DUSP10 (11751237_a_at) / RFU ID3 (11757404_x_at) / Fold change /veh ID3 (11757404_x_at) / RFU PLEKHG5 (11737974_s_at) / Fold change /veh PLEKHG5 (11737974_s_at) / RFU LRRC4B (11730491_at) / Fold change /veh LRRC4B (11730491_at) / RFU GIMAP4 (11747438_a_at) / Fold change /veh GIMAP4 (11747438_a_at) / RFU KRT8 (11758183_x_at) / Fold change /veh KRT8 (11758183_x_at) / RFU CNN1 (11734310_a_at) / Fold change /veh CNN1 (11734310_a_at) / RFU VPS37D (11726825_at) / Fold change /veh VPS37D (11726825_at) / RFU C10orf10 (11716522_x_at) / Fold change /veh C10orf10 (11716522_x_at) / RFU KIR2DL2 /// KIR2DL4 /// KIR2DL5A /// KIR2DL5B /// KIR2DS1 /// KIR2DS2 /// KIR2DS3 /// KIR2DS4 /// KIR3DL3 /// KIR3DL3 /// KIR3DS1 (11738374_at) / Fold change /veh KIR2DL2 /// KIR2DL4 /// KIR2DL5A /// KIR2DL5B /// KIR2DS1 /// KIR2DS2 /// KIR2DS3 /// KIR2DS4 /// KIR3DL3 /// KIR3DL3 /// KIR3DS1 (11738374_at) / RFU C1QL1 (11718748_at) / Fold change /veh C1QL1 (11718748_at) / RFU TMPRSS4 (11747572_a_at) / Fold change /veh TMPRSS4 (11747572_a_at) / RFU HAMP (11756126_x_at) / Fold change /veh HAMP (11756126_x_at) / RFU RNFT2 (11725882_a_at) / Fold change /veh RNFT2 (11725882_a_at) / RFU NR4A2 (11747474_a_at) / Fold change /veh NR4A2 (11747474_a_at) / RFU ABCC12 (11746883_a_at) / Fold change /veh ABCC12 (11746883_a_at) / RFU TMEM136 (11760407_x_at) / Fold change /veh TMEM136 (11760407_x_at) / RFU CLDN22 /// WWC2 (11732394_at) / Fold change /veh CLDN22 /// WWC2 (11732394_at) / RFU HLA-DPB1 (11760878_x_at) / Fold change /veh HLA-DPB1 (11760878_x_at) / RFU SPINT1 (11716480_a_at) / Fold change /veh SPINT1 (11716480_a_at) / RFU GAP43 (11754022_s_at) / Fold change /veh GAP43 (11754022_s_at) / RFU A4GNT (11735810_at) / Fold change /veh A4GNT (11735810_at) / RFU PRB3 (11715151_x_at) / Fold change /veh PRB3 (11715151_x_at) / RFU TUBB4B (11761932_at) / Fold change /veh TUBB4B (11761932_at) / RFU CAPN14 (11732068_a_at) / Fold change /veh CAPN14 (11732068_a_at) / RFU TMCC2 (11721928_a_at) / Fold change /veh TMCC2 (11721928_a_at) / RFU IRGQ (11745062_a_at) / Fold change /veh IRGQ (11745062_a_at) / RFU FAM174B (11720279_a_at) / Fold change /veh FAM174B (11720279_a_at) / RFU TMPRSS4 (11748680_a_at) / Fold change /veh TMPRSS4 (11748680_a_at) / RFU FAM212B (11763350_a_at) / Fold change /veh FAM212B (11763350_a_at) / RFU PLEKHG5 (11743358_a_at) / Fold change /veh PLEKHG5 (11743358_a_at) / RFU ZSCAN30 (11745921_a_at) / Fold change /veh ZSCAN30 (11745921_a_at) / RFU CMKLR1 (11741424_a_at) / Fold change /veh CMKLR1 (11741424_a_at) / RFU LOC101060620 /// MAPK8IP1 (11723275_at) / Fold change /veh LOC101060620 /// MAPK8IP1 (11723275_at) / RFU SPTSSB (11747773_x_at) / Fold change /veh SPTSSB (11747773_x_at) / RFU PRSS12 (11739890_at) / Fold change /veh PRSS12 (11739890_at) / RFU BIN1 (11741810_x_at) / Fold change /veh BIN1 (11741810_x_at) / RFU WNT11 (11732464_a_at) / Fold change /veh WNT11 (11732464_a_at) / RFU C10orf10 (11716521_a_at) / Fold change /veh C10orf10 (11716521_a_at) / RFU C5orf56 (11738089_at) / Fold change /veh C5orf56 (11738089_at) / RFU CYB561 (11721691_x_at) / Fold change /veh CYB561 (11721691_x_at) / RFU ANKRD19P (11752326_a_at) / Fold change /veh ANKRD19P (11752326_a_at) / RFU OR2T12 /// OR2T33 /// OR2T8 (11738714_s_at) / Fold change /veh OR2T12 /// OR2T33 /// OR2T8 (11738714_s_at) / RFU VCAN (11748164_a_at) / Fold change /veh VCAN (11748164_a_at) / RFU JSRP1 (11732532_at) / Fold change /veh JSRP1 (11732532_at) / RFU KRTAP10-11 (11738290_x_at) / Fold change /veh KRTAP10-11 (11738290_x_at) / RFU MYO3A (11730013_a_at) / Fold change /veh MYO3A (11730013_a_at) / RFU EBF3 (11725865_a_at) / Fold change /veh EBF3 (11725865_a_at) / RFU CAMK2N1 (11719241_x_at) / Fold change /veh CAMK2N1 (11719241_x_at) / RFU C5orf56 (11738088_a_at) / Fold change /veh C5orf56 (11738088_a_at) / RFU OLFML3 (11715873_a_at) / Fold change /veh OLFML3 (11715873_a_at) / RFU LOC100653217 /// NTM (11731650_a_at) / Fold change /veh LOC100653217 /// NTM (11731650_a_at) / RFU MAPK11 (11762145_a_at) / Fold change /veh MAPK11 (11762145_a_at) / RFU FIZ1 (11724087_x_at) / Fold change /veh FIZ1 (11724087_x_at) / RFU OASL (11726364_x_at) / Fold change /veh OASL (11726364_x_at) / RFU SOX15 (11748057_x_at) / Fold change /veh SOX15 (11748057_x_at) / RFU CD79A (11719716_a_at) / Fold change /veh CD79A (11719716_a_at) / RFU HIST1H1D (11736915_at) / Fold change /veh HIST1H1D (11736915_at) / RFU CASKIN2 (11723855_a_at) / Fold change /veh CASKIN2 (11723855_a_at) / RFU LOC730098 (11760151_x_at) / Fold change /veh LOC730098 (11760151_x_at) / RFU OR4N2 (11742367_at) / Fold change /veh OR4N2 (11742367_at) / RFU PRRT2 (11749266_a_at) / Fold change /veh PRRT2 (11749266_a_at) / RFU SNX32 (11753110_a_at) / Fold change /veh SNX32 (11753110_a_at) / RFU CDHR5 (11726645_a_at) / Fold change /veh CDHR5 (11726645_a_at) / RFU RCAN1 (11760418_a_at) / Fold change /veh RCAN1 (11760418_a_at) / RFU FAM167A (11723789_a_at) / Fold change /veh FAM167A (11723789_a_at) / RFU FAM26E (11764081_at) / Fold change /veh FAM26E (11764081_at) / RFU ISYNA1 (11749810_s_at) / Fold change /veh ISYNA1 (11749810_s_at) / RFU ACY1 (11761880_at) / Fold change /veh ACY1 (11761880_at) / RFU 11764098_at / Fold change /veh 11764098_at / RFU SAMD14 (11745864_x_at) / Fold change /veh SAMD14 (11745864_x_at) / RFU NPB (11741838_a_at) / Fold change /veh NPB (11741838_a_at) / RFU TMPRSS6 (11731388_a_at) / Fold change /veh TMPRSS6 (11731388_a_at) / RFU KRTAP10-2 (11738614_at) / Fold change /veh KRTAP10-2 (11738614_at) / RFU ARHGAP8 /// PRR5-ARHGAP8 (11727945_x_at) / Fold change /veh ARHGAP8 /// PRR5-ARHGAP8 (11727945_x_at) / RFU KRTAP5-7 /// NADSYN1 (11734609_at) / Fold change /veh KRTAP5-7 /// NADSYN1 (11734609_at) / RFU RASL12 (11751679_a_at) / Fold change /veh RASL12 (11751679_a_at) / RFU CDKN2B (11736163_a_at) / Fold change /veh CDKN2B (11736163_a_at) / RFU PRF1 (11729649_at) / Fold change /veh PRF1 (11729649_at) / RFU, ZNF638 /// ZNF638-IT1 / Fold change vs veh, ZNF638 /// ZNF638-IT1 / RFU, PANK3 / Fold change vs veh, PANK3 / RFU, SH3YL1 / Fold change vs veh, SH3YL1 / RFU, ZEB2 / Fold change vs veh, ZEB2 / RFU, NRIP1 / Fold change vs veh, NRIP1 / RFU, PTTG1IP / Fold change vs veh, PTTG1IP / RFU, CAPN2 / Fold change vs veh, CAPN2 / RFU, MED14 / Fold change vs veh, MED14 / RFU, SNORA58 / Fold change vs veh, SNORA58 / RFU, C1orf63 / Fold change vs veh, C1orf63 / RFU, LRRFIP1 / Fold change vs veh, LRRFIP1 / RFU, NDUFAF7 / Fold change vs veh, NDUFAF7 / RFU, SLC12A2 / Fold change vs veh, SLC12A2 / RFU, IBTK / Fold change vs veh, IBTK / RFU, ESF1 / Fold change vs veh, ESF1 / Fold change vs veh, TMEM50B / RFU, TAOK1 / Fold change vs veh, TAOK1 / RFU, ACBD3 / Fold change vs veh, ACBD3 / RFU, TMA16 / Fold change vs veh, TMA16 / RFU, RWDD3 / Fold change vs veh, RWDD3 / RFU, BCAT1 / Fold change vs veh, BCAT1 / RFU, EDEM3 / Fold change vs veh, EDEM3 / RFU, TMEM33 / Fold change vs veh, TMEM33 / RFU, WDR75 / Fold change vs veh, WDR75 / RFU, AHCTF1 / Fold change vs veh, AHCTF1 / RFU, TFRC / Fold change vs veh, TFRC / RFU, ZDHHC17 / Fold change vs veh, ZDHHC17 / RFU, NOM1 / Fold change vs veh, NOM1 / RFU, ARL8B / Fold change vs veh, ARL8B / RFU, ZBTB11 / Fold change vs veh, ZBTB11 / RFU, TAMM41 / Fold change vs veh, TAMM41 / RFU, KIAA1704 /// LOC100996395 / Fold change vs veh, KIAA1704 /// LOC100996395 / RFU, ING1 / Fold change vs veh, ING1 / RFU, TRMT61B / Fold change vs veh, TRMT61B / RFU, FUBP3 / Fold change vs veh, FUBP3 / RFU, TP53 / Fold change vs veh, TP53 / RFU, TNKS2 / Fold change vs veh, TNKS2 / RFU, ZFP14 / Fold change vs veh, ZFP14 / RFU, ACTR2 / Fold change vs veh, ACTR2 / RFU, PPP3R1 / Fold change vs veh, PPP3R1 / RFU, PIK3R1 / Fold change vs veh, PIK3R1 / RFU, HNRNPA1 / Fold change vs veh, HNRNPA1 / RFU, RNF170 / Fold change vs veh, RNF170 / RFU, ZNF28 / Fold change vs veh, ZNF28 / RFU, RNGTT / Fold change vs veh, RNGTT / RFU, OGT / Fold change vs veh, OGT / RFU, BRD1 / Fold change vs veh, BRD1 / RFU, MARS / Fold change vs veh, MARS / RFU, ZNF655 / Fold change vs veh, ZNF655 / RFU, FAHD1 / Fold change vs veh, FAHD1 / RFU, BDP1 / Fold change vs veh, BDP1 / RFU, LRRCC1 / Fold change vs veh, LRRCC1 / RFU, ARID1A / Fold change vs veh, ARID1A / RFU, ZNF146 / Fold change vs veh, ZNF146 / RFU, ZNF330 / Fold change vs veh, ZNF330 / RFU, GPN3 / Fold change vs veh, GPN3 / RFU, C9orf123 / Fold change vs veh, C9orf123 / RFU, N4BP2L2 / Fold change vs veh, N4BP2L2 / RFU, ARFIP1 / Fold change vs veh, ARFIP1 / RFU, FAM179B / Fold change vs veh, FAM179B / RFU, BCL10 / Fold change vs veh, BCL10 / RFU, UHRF1BP1L / Fold change vs veh, UHRF1BP1L / RFU, BET1 / Fold change vs veh, BET1 / RFU, CNOT2 / Fold change vs veh, CNOT2 / RFU, ZNF268 / Fold change vs veh, ZNF268 / Fold change vs veh, ZNF507 / RFU, DGCR2 / Fold change vs veh, DGCR2 / RFU, WDSUB1 / Fold change vs veh, WDSUB1 / Fold change vs veh, HSP90B1 /// MIR3652 / RFU, ADSS / Fold change vs veh, ADSS / RFU, GK / Fold change vs veh, GK / RFU, ZNF148 / Fold change vs veh, ZNF148 / RFU, TAF9 / Fold change vs veh, TAF9 / RFU, SLC1A5 / Fold change vs veh, SLC1A5 / RFU, SLMO2 / Fold change vs veh, SLMO2 / RFU, ABCC4 / Fold change vs veh, ABCC4 / RFU, LOC101060439 /// RAP1B / Fold change vs veh, LOC101060439 /// RAP1B / RFU, RFX7 / Fold change vs veh, RFX7 / RFU, GTPBP10 / Fold change vs veh, GTPBP10 / RFU, CNEP1R1 / Fold change vs veh, CNEP1R1 / RFU, BIVM-ERCC5 /// ERCC5 / Fold change vs veh, BIVM-ERCC5 /// ERCC5 / RFU, ILF3 / Fold change vs veh, ILF3 / RFU 11762660_at / Fold change /veh 11762660_at / RFU VCAN (11757783_s_at) / Fold change /veh VCAN (11757783_s_at) / RFU DDX43 (11728927_at) / Fold change /veh DDX43 (11728927_at) / RFU KRT8 (11758188_x_at) / Fold change /veh KRT8 (11758188_x_at) / RFU NKD1 (11759106_at) / Fold change /veh NKD1 (11759106_at) / RFU SRD5A1 (11742802_a_at) / Fold change /veh SRD5A1 (11742802_a_at) / RFU TPSAB1 /// TPSB2 (11721975_s_at) / Fold change /veh TPSAB1 /// TPSB2 (11721975_s_at) / RFU GSTM3 (11746129_a_at) / Fold change /veh GSTM3 (11746129_a_at) / RFU IL23R (11737362_x_at) / Fold change /veh IL23R (11737362_x_at) / RFU TMEM51 (11727254_a_at) / Fold change /veh TMEM51 (11727254_a_at) / RFU PIWIL2 (11732686_x_at) / Fold change /veh PIWIL2 (11732686_x_at) / RFU ORM1 (11744905_x_at) / Fold change /veh ORM1 (11744905_x_at) / RFU CCDC152 (11743942_at) / Fold change /veh CCDC152 (11743942_at) / RFU ECM1 (11717891_a_at) / Fold change /veh ECM1 (11717891_a_at) / RFU IL23R (11748794_a_at) / Fold change /veh IL23R (11748794_a_at) / RFU TNFAIP8L3 (11732012_x_at) / Fold change /veh TNFAIP8L3 (11732012_x_at) / RFU MBOAT4 (11741988_at) / Fold change /veh MBOAT4 (11741988_at) / RFU 11764193_at / Fold change /veh 11764193_at / RFU TMEM53 (11763286_at) / Fold change /veh TMEM53 (11763286_at) / RFU MAGEB2 (11727129_at) / Fold change /veh MAGEB2 (11727129_at) / RFU TMEM200A (11744735_a_at) / Fold change /veh TMEM200A (11744735_a_at) / RFU CCDC152 (11751479_a_at) / Fold change /veh CCDC152 (11751479_a_at) / RFU FAM211A (11726209_a_at) / Fold change /veh FAM211A (11726209_a_at) / RFU RGS16 (11746705_a_at) / Fold change /veh RGS16 (11746705_a_at) / RFU VCAN (11755009_s_at) / Fold change /veh VCAN (11755009_s_at) / RFU RHOB (11743442_s_at) / Fold change /veh RHOB (11743442_s_at) / RFU RGS16 (11720943_a_at) / Fold change /veh RGS16 (11720943_a_at) / RFU RGS16 (11720944_at) / Fold change /veh RGS16 (11720944_at) / RFU, VPS4B / Fold change vs veh, VPS4B / RFU, CREB1 / Fold change vs veh, CREB1 / RFU, DNAJC13 / Fold change vs veh, DNAJC13 / RFU, GNAQ / Fold change vs veh, GNAQ / RFU, CDK5R1 / Fold change vs veh, CDK5R1 / RFU, ZRANB3 / Fold change vs veh, ZRANB3 / RFU, CUL4A / Fold change vs veh, CUL4A / RFU, CCNY / Fold change vs veh, CCNY / RFU, UFL1 / Fold change vs veh, UFL1 / RFU, COG3 / Fold change vs veh, COG3 / RFU, DIAPH2 / Fold change vs veh, DIAPH2 / RFU, SKA2 / Fold change vs veh, SKA2 / RFU, AFF3 / Fold change vs veh, AFF3 / RFU, LMF1 / Fold change vs veh, LMF1 / RFU, IPO11 / Fold change vs veh, IPO11 / RFU, DFFB / Fold change vs veh, DFFB / RFU, FOXP1 / Fold change vs veh, FOXP1 / RFU, CARD8 / Fold change vs veh, CARD8 / RFU, STRN3 / Fold change vs veh, STRN3 / RFU, ADK / Fold change vs veh, ADK / RFU, RASSF2 / Fold change vs veh, RASSF2 / RFU, WIPF1 / Fold change vs veh, WIPF1 / RFU, LARP1B / Fold change vs veh, LARP1B / RFU, RASA1 / Fold change vs veh, RASA1 / RFU, RB1 / Fold change vs veh, RB1 / RFU, PPFIA1 / Fold change vs veh, PPFIA1 / RFU, MAT2A / Fold change vs veh, MAT2A / RFU, CCT5 / Fold change vs veh, CCT5 / RFU, WDR92 / Fold change vs veh, WDR92 / RFU, CUX1 / Fold change vs veh, CUX1 / RFU, TTC7A / Fold change vs veh, TTC7A / RFU, TMEM135 / Fold change vs veh, TMEM135 / RFU, DEPTOR / Fold change vs veh, DEPTOR / RFU, CPM / Fold change vs veh, CPM / RFU, DNAJB6 / Fold change vs veh, DNAJB6 / RFU, CACNA2D3 / Fold change vs veh, CACNA2D3 / RFU, DTX4 / Fold change vs veh, DTX4 / RFU, TFCP2 / Fold change vs veh, TFCP2 / RFU, GMCL1 /// GMCL1P1 / Fold change vs veh, GMCL1 /// GMCL1P1 / RFU, AEBP2 / Fold change vs veh, AEBP2 / RFU, SNHG1 /// SNORD22 /// SNORD25 /// SNORD26 /// SNORD27 /// SNORD28 /// SNORD29 /// SNORD31 / Fold change vs veh, SNHG1 /// SNORD22 /// SNORD25 /// SNORD26 /// SNORD27 /// SNORD28 /// SNORD29 /// SNORD31 / Fold change (Aza/veh), C12orf56 (ProbeSet 11735607_a_at) / Fold change (ACY-1035/veh), C12orf56 (ProbeSet 11735607_a_at) / Fold change (Aza/veh), FGFR1OP (ProbeSet 11751329_s_at) / Fold change (ACY-1035/veh), FGFR1OP (ProbeSet 11751329_s_at) / Fold change (Aza/veh), VPS36 (ProbeSet 11739960_a_at) / Fold change (ACY-1035/veh), VPS36 (ProbeSet 11739960_a_at) / RFU SYPL1 (11715823_x_at) / Fold change /veh SYPL1 (11715823_x_at) / RFU IGFBP7 (11715501_s_at) / Fold change /veh IGFBP7 (11715501_s_at) / RFU REEP3 (11722064_at) / Fold change /veh REEP3 (11722064_at) / RFU IGLL1 (11728026_x_at) / Fold change /veh IGLL1 (11728026_x_at): dose or concentration left out as unconfirmed
Conditions: MV-4-11 cells, 48 hours

Structure (SMILES): Nc1ncn([C@@H]2O[C@H](CO)[C@@H](O)[C@H]2O)c(=O)n1 [azacitidine]
- Fold change /veh ECM1 (11717891_a_at): 1.26

Source: PMC5218480 (PLoS ONE, 2017)
